One assay has as its system Bakterien. Kind of assay: Thermal ageing: bacteria test (ISO 22196) after accelerated ageing ASTM F1980-16 at 60°C for 4 weeks. It is filed as cell-based. Particulars: 4 h, beschleunigte Alterung 60°C, Rezeptur 2 (Borsäure) on Melamin, 2 mM. The text has this:
Die Bestimmung der antimikrobiellen Aktivität erfolgte nach einer modifizierten Version der ISO 22196:2011-08 ("Messung von antibakterieller Aktivität auf Kunststoff- und anderen porenfreien Oberflächen", Ausgabedatum: 2011-08).
Bei der Testdurchführung wurde ein dünner Flüssigkeitsfilm, in dem die Bakterien enthalten sind (1,25 x 10^4 /cm2), direkt auf die Probekörper (2,5 cm x 2,5 cm) aufgebracht. Direkt nach Beimpfung wurden von der Nullprobe die Bakterien von den Probekörperoberflächen mittels Ultraschall und Vortexen abgelöst und die Keimzahl (KBE (engl. CFU), Kolonie-bildende Einheit) bestimmt (t0-Wert). Ein weiterer Satz Nullproben und antimikrobiell ausgestatteter Proben wurden mit Bakterien im Flüssigkeitsfilm bei Raumtemperatur inkubiert. Nach 4 h wurden überlebende Bakterien von den Probekörperoberflächen mittels Ultraschall und Vortexen abgelöst und die Keimzahl bestimmt (t4-Wert).
Im Unterschied zu der in der ISO 22196:2011-08 beschriebenen Methode wurde das Inokulum nicht mit einer Folie abgedeckt und die Inkubationszeit von 24 auf 4 Stunden reduziert. Weiterhin wurden die Platten der Proben 3 und 4 mit Licht mit einer Intensität von 300 µW/cm2 belichtet.
Zur Beurteilung der Schicht auf Alterungsprozesse, wurde eine beschleunigte Alterung nach ASTM F1980-16 bei 60°C für 4 Wochen durchgeführt.
Der Bakterientest wurde in Anlehnung an ISO 22196 nach oben beschriebener Methode durchgeführt. Die Ergebnisse sind in der Tabelle 62 zusammengefasst. Tabelle 62: Mikrobiologische Wirksamkeit (log10 Reduktion) bei beschleunigter Alterung (60°C).

The next assay relates to verschiedene Virenstämme. Kind of assay: Virus test following ISO 21702, photodynamic effect of a SolGel coating on different virus strains. As to conditions: read-out: Log10 Reduktion Probe.

Read-outs that look alike come from different tables or passages of the source.

With `CC(C)(O)c1cc[n+](CC2=Cc3cccc4cccc(c34)C2=O)cc1` [S-25a], the log reduction at 2000 µM in the assay with Bakterien (0 Wo, dark, read-out: Log10 Reduktion nach 0 Wo, Dunkelkontrolle) was 0.1; in the assay with Bakterien (0 Wo, read-out: Log10 Reduktion nach 0 Wo, Probe), 3.9; with Bakterien (1 Wo, dark, read-out: Log10 Reduktion nach 1 Wo, Dunkelkontrolle) it was 0; with Bakterien (1 Wo, read-out: Log10 Reduktion nach 1 Wo, Probe), 3.8; in the assay on Bakterien (2 Wo, dark, read-out: Log10 Reduktion nach 2 Wo, Dunkelkontrolle), 0; in the assay with Bakterien (2 Wo, read-out: Log10 Reduktion nach 2 Wo, Probe), 3.4. Also, the log reduction at 2000 µM in the assay on Bakterien (3 Wo, dark, read-out: Log10 Reduktion nach 3 Wo, Dunkelkontrolle) was found to be 0.3; in the assay with Bakterien (3 Wo, read-out: Log10 Reduktion nach 3 Wo, Probe), 3.3; in the assay with Bakterien (4 Wo, dark, read-out: Log10 Reduktion nach 4 Wo, Dunkelkontrolle), 0.4; with Bakterien (4 Wo, read-out: Log10 Reduktion nach 4 Wo, Probe), 2.8; with verschiedene Virenstämme (83 min) it was 5.5; with verschiedene Virenstämme (Influenza A virus, H1N1, 83 min), 3.8. Besides, in the assay with verschiedene Virenstämme (unidentified adenovirus, 83 min), the log reduction at 2000 µM turned out to be 2.

For the origin of these results see patent EP4458916A1, “PHOTOCATALYTICALLY ACTIVE COATING COMPOSITION, METHOD FOR THE PRODUCTION THEREOF AND USE THEREOF” (priority 2023, dated 2024).
